Consider 2 compounds from patent US11053235B2, “Substituted 1,4-dihydropyrimidines for the treatment of HBV infection or HBV-induced diseases” (Janssen Sciences Ireland Unlimited Company, priority 2018, dated 2021).

Read-outs that look alike come from different tables or passages of the source.

Type in all cases: cell-based
The test system of one data set is HepG2.2.15 cells. The data set is described as follows: Cytotoxicity determination in HepG2.2.15 cells (CCK-8). The note with it: 6 days treatment, CCK-8, highest concentration 100 uM. In short, it runs like this: (§1)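 CC50 derived from CCK-8 absorbance (450 nm, 630 nm reference) after 2.5 h incubation at 37 °C. Before that, HepG2.2.15 cells (5,000/well, 2% FBS) received an 8-point, 3-fold compound series topping at 100 uM for 6 days, with one mid-treatment medium change.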

The next data set deals with HBV. The data set is described as follows: Anti-viral assay in HepG2.2.15 cells: HBV inhibitory activity (HBV DNA in culture medium by q-PCR). The note with it: HepG2.2.15 cells, 6 days treatment, HBV DNA in culture medium by q-PCR, highest concentration 10 uM, read-out: EC50. The gist of the method: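 HBV DNA released into the medium was measured by q-PCR after 6-day compound exposure of HepG2.2.15 cells (40,000/well, 2% FBS, one mid-course medium change). Eight 3-fold dilutions, highest 10 uM; EC50 derived by curve fitting.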

Data set [1] can be described thus: Cytotoxicity determination in HepG2.2.15 cells (CCK-8). The note with it: human, 6 days treatment, CCK-8, highest concentration 100 uM. In short, it runs like this: as §1

With `CCOC(=O)C1=C(C2CC=C(c3nc(C(=O)O)co3)CC2)NC(c2nccs2)=NC1c1ccc(F)c(F)c1Cl` (single isomer, unassigned) [Compound I-13-D, 2-(4-(6-(2-chloro-3,4-difluorophenyl)-5-(ethoxycarbonyl)-2-(thiazol-2-yl)-3,6-dihydropyrimidin-4-yl)cyclohex-1-en-1-yl)oxazole-4-carboxylic Acid], the midpoint of cytotoxicity with HepG2.2.15 cells, the CC50, lay at 6.09 µM. Moreover, the 50% effective concentration (EC50) (in general, the midpoint of the concentration-response curve) with HBV was 0.0032 µM.

For the compound `CCOC(=O)C1=C(C2CCN(c3cnc(OC)c(C(=O)O)n3)CC2)NC(c2nccs2)=NC1c1ccc(F)c(F)c1Cl` (single isomer, unassigned) [II-47-B, 6-(4-(6-(2-chloro-3,4-difluorophenyl)-5-(ethoxycarbonyl)-2-(thiazol-2-yl)-3,6-dihydropyrimidin-4-yl)piperidin-1-yl)-3-methoxypyrazine-2-carboxylic Acid], the half-maximal cytotoxic concentration (CC50) (in general, the concentration at which the toxic effect on the cells reaches its halfway point) at 6 days in data set [1] turned out to be 11.1 µM. For the same compound, the EC50 with HBV (Hepatitis B virus, HepG2.2.15, 144 h) stood at 0.025 µM.
